Test results as given in patent US11931365B2, “Use of PPAR-delta agonists in the treatment of disease” (Reneo Pharmaceuticals, Inc., priority 2022, dated 2024).

Tests used:
[1] = target: PPARα (UniProt Q4PNY3); experiment: PPAR receptor transactivation assay; assay type: cell-based; settings: Monkey PPARα
[2] = test system: rat muscle cell lines; experiment: Fatty acid oxidation in muscle cell lines; assay type: cell-based
[3] = target: T1, hPPARγ (Homo sapiens, UniProt P37231); experiment: PPAR receptor transactivation assay (UAS-bla Gal4, HEK293); assay type: cell-based
T1 construct: expressed in transfected cells; host or cells: Jump-In GripTite HEK293
T1 sequence (P37231 whole entry, the tested form may be a part): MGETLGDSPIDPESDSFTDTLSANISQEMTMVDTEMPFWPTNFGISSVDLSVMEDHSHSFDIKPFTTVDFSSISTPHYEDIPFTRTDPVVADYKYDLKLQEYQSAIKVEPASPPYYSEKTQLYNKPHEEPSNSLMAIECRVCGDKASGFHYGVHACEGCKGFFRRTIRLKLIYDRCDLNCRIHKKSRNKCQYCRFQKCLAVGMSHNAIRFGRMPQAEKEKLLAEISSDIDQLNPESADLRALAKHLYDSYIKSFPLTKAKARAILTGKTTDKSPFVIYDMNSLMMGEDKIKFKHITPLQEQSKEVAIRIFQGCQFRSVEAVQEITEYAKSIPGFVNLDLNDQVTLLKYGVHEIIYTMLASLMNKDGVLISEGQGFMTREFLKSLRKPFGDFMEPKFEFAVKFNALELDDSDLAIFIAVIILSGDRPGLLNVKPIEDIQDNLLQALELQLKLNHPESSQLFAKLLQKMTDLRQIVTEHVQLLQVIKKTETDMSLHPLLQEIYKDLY
Procedure: (§1) Compound I was tested on all three human PPAR subtypes (hPPAR): hPPARα, hPPARγ, and hPPARδ in vitro assays testing for such activity.
(§2) Compound I was tested on all three human PPAR subtypes (hPPAR): hPPARα, hPPARγ, and hPPARδ. All assays were repeated at least three times for each subtype.
(§3) The genes of interest were synthesized and cloned into an appropriate Jump-In™ retargeting vector following the User Guide of the Jump-in™ T-REx™ HEK293 Retargeting Kit (ThermoFisher Catalog No A15008). For example, the vector will be used to transfect and retarget the Jump-In™ HEK293 GripTite™ parental cell line. Stable pools will be antibiotic-selected for about 21 days and tested for target gene expression by functional assay.
(§4) Jump-In™ GripTite™ HEK293 parental cells were plated at 60-80% confluency in a T-75 flask in growth medium without antibiotics and transfected with a 1:1 ratio of expression construct and R4 integrase expression construct (20 μg DNA total) using Lipofectamine® LTX (50 μL) and PLUS™ Reagent (20 μL). Following a 48 hours incubation, cells were selected with 600 μg/mL Geneticin® and 10 μg/mL Blasticidin for ˜21 days in growth medium.
(§5) Jump-In™ GripTite™ HEK293 rPPAR Alpha, Delta or Gamma UAS-bla-Gal4 cell pools were plated in a 384-well plate format (20,000 cells per well) in OptiMeM without FBS in replicates (n=4). Cells were allowed to adhere for 8 hours before addition of Compound I (1 mM top concentration, 3-fold dilutions, 10-point titration). After 16 hours, the cells were loaded with LiveBLAzer®, a fluorescent BLA substrate that gives a blue/green readout of expressing/non-expressing cells, respectively. The blue/green readout was measured on a fluorescent plate reader (Tecan Safire II).

[4] = target: T2, hPPARα (Homo sapiens, UniProt Q07869); experiment: as above; assay type: cell-based; settings: PPARα
T2 construct: expressed in transfected cells; host or cells: Jump-In GripTite HEK293
T2 sequence (Q07869 whole entry): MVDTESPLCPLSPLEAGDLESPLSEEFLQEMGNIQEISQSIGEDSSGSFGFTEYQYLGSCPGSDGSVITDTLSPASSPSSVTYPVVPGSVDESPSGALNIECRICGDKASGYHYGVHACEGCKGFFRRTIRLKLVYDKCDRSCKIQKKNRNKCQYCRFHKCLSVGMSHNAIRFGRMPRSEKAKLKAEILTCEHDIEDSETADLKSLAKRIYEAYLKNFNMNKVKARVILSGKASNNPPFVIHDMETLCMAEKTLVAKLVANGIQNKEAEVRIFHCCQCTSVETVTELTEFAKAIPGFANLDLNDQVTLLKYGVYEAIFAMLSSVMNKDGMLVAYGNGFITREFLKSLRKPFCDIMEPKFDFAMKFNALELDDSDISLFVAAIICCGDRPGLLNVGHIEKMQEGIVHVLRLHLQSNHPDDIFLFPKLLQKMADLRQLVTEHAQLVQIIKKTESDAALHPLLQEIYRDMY
Procedure: as §1, §2, §3, §4, §5

[5] = target: T3, hPPARδ (Homo sapiens, UniProt Q03181); experiment: as above; assay type: cell-based
T3 construct: expressed in transfected cells; host or cells: Jump-In GripTite HEK293
T3 sequence (Q03181 1-441): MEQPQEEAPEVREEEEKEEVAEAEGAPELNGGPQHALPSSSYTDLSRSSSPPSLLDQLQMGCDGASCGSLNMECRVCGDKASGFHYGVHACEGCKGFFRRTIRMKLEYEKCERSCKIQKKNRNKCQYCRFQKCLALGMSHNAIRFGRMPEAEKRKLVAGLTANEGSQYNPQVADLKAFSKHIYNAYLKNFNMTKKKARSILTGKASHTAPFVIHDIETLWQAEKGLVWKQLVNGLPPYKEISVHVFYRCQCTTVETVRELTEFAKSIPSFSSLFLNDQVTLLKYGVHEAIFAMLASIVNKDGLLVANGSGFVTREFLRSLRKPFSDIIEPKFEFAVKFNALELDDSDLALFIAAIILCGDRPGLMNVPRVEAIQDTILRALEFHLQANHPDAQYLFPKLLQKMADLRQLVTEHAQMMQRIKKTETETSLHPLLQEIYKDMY
Procedure: as §1, §2, §3, §4, §5

[6] = test system: patients with primary mitochondrial myopathy; experiment: Clinical trial for primary mitochondrial myopathy (PMM); assay type: in vivo, human
[7] = 100 mg once daily, 12 weeks, listed as Compound 1

EC50 [1]: > 1000 nM
agonist type ([3]; PPARγ): partial agonist
EC50 ([3]; human PPARγ): > 10 µM
agonist type [4]: partial agonist
agonist type ([5]; PPARδ): full agonist
selectivity for PPARδ over PPARα ([5]; PPARδ over PPARα): 100 fold
selectivity for PPARδ over PPARγ ([5]; PPARδ over PPARγ): 400 fold
SMILES: Cc1cc(OC/C=C(/c2ccc(F)cc2)c2ccc(C#CCN3CCOCC3)cc2)ccc1OCC(=O)O [Compound I, (E)-2-(4-((3-(4-fluorophenyl)-3-(4-(3-morpholinoprop-1-yn-1-yl)phenyl)allyl)oxy)-2-methylphenoxy)acetic acid]
fatty acid oxidation [2]: dose-dependent increase
Modified Fatigue Impact Scale scores ([6]; 100 mg once daily, 12 weeks): trends towards increases
brief pain inventory (BPI) score ([6]; 100 mg once daily, 12 weeks): Decreases
distance walked during a 12-minute walk test ([6]; 100 mg once daily, 12 weeks): able to increase the distance walked
peak VO2 ([6]; 100 mg once daily, 12 weeks): trends towards increases
brief pain inventory (BPI) score [6, 7]: decreased
distance walked during a 12-minute walk test [6, 7]: Improvements
tolerability ([6]; PMM patients): well tolerated
